Each structure is given as a SMILES string. pIC50: −log10 of the molar value. Where a name gives a salt, the structure may show the parent alone.

The experiment has as its target T1, human LOXL2 (Homo sapiens, UniProt Q9Y4K0).
T1 construct: expressed in transfected cells; 10-20x concentrated conditioned media used as the enzyme source
T1 sequence (Q9Y4K0 26-774): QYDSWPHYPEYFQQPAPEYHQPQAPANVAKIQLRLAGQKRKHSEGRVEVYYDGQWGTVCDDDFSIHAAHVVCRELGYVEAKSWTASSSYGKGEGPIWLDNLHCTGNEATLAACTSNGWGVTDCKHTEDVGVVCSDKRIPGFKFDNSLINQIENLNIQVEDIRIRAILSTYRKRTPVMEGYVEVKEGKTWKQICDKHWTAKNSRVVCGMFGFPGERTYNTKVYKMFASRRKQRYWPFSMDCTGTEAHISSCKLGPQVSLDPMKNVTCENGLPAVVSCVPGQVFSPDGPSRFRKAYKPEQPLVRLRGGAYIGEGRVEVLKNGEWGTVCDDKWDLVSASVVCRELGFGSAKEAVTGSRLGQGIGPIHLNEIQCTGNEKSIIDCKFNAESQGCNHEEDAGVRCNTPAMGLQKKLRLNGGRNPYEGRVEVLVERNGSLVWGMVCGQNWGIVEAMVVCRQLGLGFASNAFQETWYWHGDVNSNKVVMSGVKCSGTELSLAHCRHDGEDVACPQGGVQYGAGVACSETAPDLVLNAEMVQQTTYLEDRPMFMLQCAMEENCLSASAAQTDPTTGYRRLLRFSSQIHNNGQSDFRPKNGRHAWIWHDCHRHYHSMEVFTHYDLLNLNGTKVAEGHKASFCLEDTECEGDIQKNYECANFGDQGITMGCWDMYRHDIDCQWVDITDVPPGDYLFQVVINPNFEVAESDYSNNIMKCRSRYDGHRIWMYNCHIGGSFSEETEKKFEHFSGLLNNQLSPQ
Briefly: Human LOXL2 amine oxidase activity assay (Amplex Red fluorescence). In kind it is biochemical. Conditions: concentrated conditioned media from CHO cells stably expressing human LOXL2; 2 h at 37° C. preincubation; DAP substrate. The method, then: Example B-1: Human LOXL2 Amine Oxidase Activity Assay
LOXL2 amine oxidase activity is evaluated by measuring Amplex Red fluorescence using 10-20× concentrated conditioned media from CHO cells stably expressing human LOXL2.
To assay for amine oxidase activity, 10 μL of the concentrated conditioned media is incubated with 2 μL of test compound in DMSO and 73 μL Assay Buffer (50 mM Borate Buffer, pH8) for 2 h at 37° C. After the 2 h incubation, 5 ul of 10 mM 1,5-Diaminopentane (DAP) diluted in Assay Buffer and 10 μl of Amplex Red Mix (8.5 μl Assay Buffer+0.5 μl of 10 mM Amplex Red+1 μl of 500 U/ml Horseradish Peroxidase) are added and the plate mixed and immediately placed on the FlexStaion for fluorescence measurements. Fluorescence is read in kinetic mode every 2 min for 1 hour at excitation=544 and emission=590. The amine oxidase activity is calculated from the slope of the linear portion of the curve.
The pIC50 is −log10 of the IC50, conventionally taken in molar units. A lower pIC50 goes with a large IC50. For the compound `NCc1cc(OCc2cccc(C(=O)N3CCC(O)(C(F)(F)F)CC3)c2)ncn1` [Compound 1-94, (3-(((6-(Aminomethyl)pyrimidin-4-yl)oxy)methyl)phenyl)(4-hydroxy-4-(trifluoromethyl)piperidin-1-yl)methanone], the pIC50 is above 7.00.

Turning to `NCc1cc(Nc2cccc(C(=O)Nc3ccccc3)c2)ncn1` [Compound 1-42, 3-((6-(Aminomethyl)pyrimidin-4-yl)amino)-N-phenylbenzamide], the negative-log IC50 (pIC50) was above 7.00.

Compound `NCc1cc(Oc2cccc3c2CCC(=O)N3CCO)ncn1` [Compound 1-15, (5-((6-(Aminomethyl)pyrimidin-4-yl)oxy)-1-(2-hydroxyethyl)-3,4-dihydroquinolin-2(1H)-one hydrochloride] gave a pIC50 above 7.00.

For `NCc1cc(N2CCN(C(=O)c3ccccc3)CC2)ncn1` [Compound 1-104, (4-(6-(Aminomethyl)pyrimidin-4-yl)piperazin-1-yl)(phenyl)methanone], the pIC50 was below 6.00.

As for `NCc1cc(NCc2cccc(C(=O)Nc3cccc(C(F)(F)F)c3)c2)ncn1` [Compound 1-96, 3-(((6-(Aminomethyl)pyrimidin-4-yl)amino)methyl)-N-(3-(trifluoromethyl)phenyl)benzamide], the negative-log IC50 (pIC50) is above 7.00.

On to `NCc1cc(Oc2cccc(C(=O)NCc3ccc4ccccc4n3)c2)ncn1` [Compound 1-63, 3-((6-(Aminomethyl)pyrimidin-4-yl)oxy)-N-(quinolin-2-ylmethyl)benzamide], for which the negative logarithm of the IC50 (pIC50) is above 7.00.

For the compound `CN1CC(CNC(=O)c2cccc(COc3cc(CN)ncn3)c2)OC1=O` (racemic) [Compound 1-36, Racemic-3-(((6-(aminomethyl)pyrimidin-4-yl)oxy)methyl)-N-((3-methyl-2-oxooxazolidin-5-yl)methyl)benzamide], the pIC50 is above 7.00.

`NCc1cc(N2CCN(C(=O)Cc3ccccc3)CC2)ncn1` [Compound 1-106, 1-(4-(6-(Aminomethyl)pyrimidin-4-yl)piperazin-1-yl)-2-phenylethanone] showed a pIC50 of 6.00 to 7.00.

`Cn1cc(-n2ccc3c(Oc4cc(CN)ncn4)cccc32)cn1` [Compound 1-32, (6-((1-(1-Methyl-1H-pyrazol-4-yl)-1H-indol-4-yl)oxy)pyrimidin-4-yl)methanamine]: the pIC50 was above 7.00.

The compound `NCc1cc(OCc2cccc(C(=O)N[C@@H](CO)c3ccccc3)c2)ncn1` [Compound 1-78, (R)-3-(((6-(Aminomethyl)pyrimidin-4-yl)oxy)methyl)-N-(2-hydroxy-1-phenylethyl)benzamide] had a pIC50 above 7.00.

Compound `NCc1cc(Oc2cccc3[nH]ccc23)ncn1` [Compound 1-19, (6-((1H-Indol-4-yl)oxy)pyrimidin-4-yl)methanamine] gave a pIC50 above 7.00.

Regarding `NCc1cc(Oc2cccc3c2ccn3CC(=O)O)ncn1` [Compound 1-22, 2-(4-((6-(Aminomethyl)pyrimidin-4-yl)oxy)-1H-indol-1-yl)acetic acid], the negative-log IC50 (pIC50) was above 7.00.

Turning to `C#C[C@H](CC(=O)OC)NC(=O)c1cccc(Oc2cc(CN)ncn2)c1` [Compound 1-75, (S)-Methyl 3-(3-((6-(aminomethyl)pyrimidin-4-yl)oxy)benzamido)pent-4-ynoate], the negative-log IC50 (pIC50) is above 7.00.

Consider `NCc1cc(Oc2cccc3c2ccn3CC(=O)N2CCCCC2)ncn1` [Compound 1-23, 2-(4-((6-(Aminomethyl)pyrimidin-4-yl)oxy)-1H-indol-1-yl)-1-(piperidin-1-yl)ethan-1-one], for which the pIC50 is 6.00 to 7.00.

Regarding `CC1(C)CCN(C(=O)c2cccc(Oc3cc(CN)ncn3)c2)CC1` [Compound 1-59, (3-((6-(Aminomethyl)pyrimidin-4-yl)oxy)phenyl)(4,4-dimethylpiperidin-1-yl)methanone], the pIC50 is above 7.00.

For `NCc1cc(OCc2cccc(C(=O)N3CCc4ccncc43)c2)ncn1` [Compound 1-93, (3-(((6-(Aminomethyl)pyrimidin-4-yl)oxy)methyl)phenyl)(2,3-dihydro-1H-pyrrolo[2,3-c]pyridin-1-yl)methanone], the pIC50 was above 7.00.

The record behind these values is US20180186755A1, “LYSYL OXIDASE-LIKE 2 INHIBITORS AND USES THEREOF” (PharmAkea, Inc., priority 2015, published 2018).
